Data: ChEMBL document CHEMBL1201862, “PubChem BioAssay data set” (2004)
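Protocol summary: plate cells (96-well), add compound at 5 concentrations, incubate 48 h, interpolate endpoints linearly. Abbreviation: GI50, concentration required for 50% inhibition of growth.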 Calls of active or inactive are those of the source. No stated cut-off is given here; in the data, active = GI50 up to about 1.1 µM and inactive = higher.

Tests used:
Assay in all cases: growth of human tumour cells (NCI), 48 h
PC-3 = tested on: PC-3
ACHN = tested on: ACHN
SF-539 = tested on: SF-539
LOX IMVI = tested on: LOX IMVI
SR = tested on: SR
SK-OV-3 = tested on: SK-OV-3
T47D = tested on: T47D
IGROV-1 = tested on: IGROV-1
OVCAR-5 = tested on: OVCAR-5
COLO 205 = tested on: COLO 205
MDA-MB-435 = tested on: MDA-MB-435
A498 = tested on: A498
SK-MEL-28 = tested on: SK-MEL-28
HL-60 = tested on: HL-60
OVCAR-4 = tested on: OVCAR-4
UACC-62 = tested on: UACC-62
M14 = tested on: M14
SK-MEL-2 = tested on: SK-MEL-2
NCI-H226 = tested on: NCI-H226
SN12C = tested on: SN12C

In the case of `C[C@]12CC[C@H]3[C@@H](CC[C@]4(O)C[C@@H](O)CC[C@]34C=O)[C@@]1(O)CC[C@@H]2C1=CC(=O)OC1` [STROPHANTHIDIN], the GI50 (PC-3) is reported as 453 nM (active), the GI50 (ACHN) is reported as 142 nM (active) and the GI50 (SF-539) is reported as 294 nM (active). The GI50 (LOX IMVI) was 453 nM (active), the GI50 (SR) was 386 nM (active) and the GI50 (SK-OV-3) was 568 nM (active). The GI50 (T47D) was 697 nM (active), the GI50 (IGROV-1) was 453 nM (active) and the GI50 (OVCAR-5) was 1420 nM (inactive). The GI50 (COLO 205) was 1360 nM (inactive), the GI50 (MDA-MB-435) was 522 nM (active) and the GI50 (A498) was 562 nM (active). The GI50 (SK-MEL-28) was 1730 nM (inactive), the GI50 (HL-60) was 347 nM (active) and the GI50 (OVCAR-4) was 298 nM (active). The GI50 (UACC-62) was 1520 nM (inactive), the GI50 (M14) was 1070 nM (active) and the GI50 (SK-MEL-2) was 1610 nM (inactive). The GI50 (NCI-H226) was 1230 nM (inactive) and the GI50 (SN12C) was 418 nM (active).
